In experiment [1] the test system is keratinocyte outgrowth of skin explants. Put plainly: ex vivo wound healing assay: organotypic culture of newborn mouse skin explants, keratinocyte outgrowth. It counts as cell-based. The settings on record: 0.1 mM in culture medium, 7 days culture.
Another experiment relates to ENaC. The experiment can be described thus: real-time PCR analysis of ENaC subunit gene expression in skin of K5-MR neonates. Format: in vivo, mouse. The settings on record: K5-MR pups; pregnant mice were given canrenoate. The text has this: We took advantage of the K5-MR mouse model to question whether expression of ENaC and its main regulators may be altered by MR overexpression. Skin samples from control and K5-MR neonates were processed for real-time PCR analysis of gene expression.
In general terms: In qPCR the cycle at which signal appears reflects the starting amount.

Here are results for one compound from patent US9682089B2, “Methods and compositions for stimulating reepithelialisation during wound healing” (Institut National de la Sante et de la Recherche Medicale …, priority 2010, dated 2017).

For the compound `C[C@]12CCC(=O)C=C1C=C[C@@H]1[C@@H]2CC[C@@]2(C)[C@H]1CC[C@@]2(O)CCC(=O)O` [potassium canrenoate], in experiment [1] (skin explants from K5-MR pups (MR overexpression in basal keratinocytes)), the “impaired keratinocyte outgrowth of the explants” value was “partially but significantly improved”. For the same compound, the “keratinocyte outgrowth of the explants” value in experiment [1] (skin explants from control pups) is “no effect”. Further, the “enhanced skin mRNA expression of all 3 subunits of ENaC (abnormal pattern of expression)” value in the experiment on ENaC is “blunted”.
